Read-outs that look alike come from different tables or passages of the source.
Columns and labels:
[1] = system: Methicillin-Susceptible Staphylococcus aureus Isolates; experiment: MIC assay (NCCLS broth dilution), MSSA clinical isolates; type: cell-based
Experimental: (§1) Antibiotics: novobiocin, tetracycline, minocycline, oxacillin, and vancomycin were all purchased from Sigma-Aldrich. Linezolid was obtained from Pfizer, Inc. Novobiocin/tetracycline and novobiocin/minocycline were tested in a 2.5:1 ratio to mimic the serum levels. (Vavra, J. J., 1967, Development of resistance to novobiocin, tetracycline, and novobiocin-tetracycline combinations in Staphylococcus aureus populations, J. Bacteriol 93(3):801). Compounds were tested across a concentration range consisting of 11 two-fold serial dilutions of test agent.
(§2) Stock solutions were prepared in sterile deionized water; novobiocin stock concentration was 1600 μg/mL and all other drugs stock solutions were prepared at 640 μg/mL. The stock solutions were allowed to sit at room temperature for one hour to auto-sterilize prior to use in the test. All compounds were in solution in water. The control agent was vancomycin hydrochloride, Sigma Chemical Lot # 015K0825.
(§3) The test organisms for the assay were 52 MSSA, 52 MRSA, 8 VISA, 7 VISE, and 3 LRSA isolates. Quality control strains included Staphylococcus aureus 0100 (ATCC 29213) and Enterococcus faecalis (ATCC 29212).
(§4) The MIC assay was performed according to published NCCLS guidelines. (National Committee for Clinical Laboratory Standards, Methods for Dilution Antimicrobial Susceptibility Tests for Bacteria that Grow Aerobically; Approved Standard-Sixth Edition, NCCLS Document M7-A6 [ISBN 1-56238-486-4], NCCLS, 940 West Valley Road, Suite 1400, Wayne, Pa. 19087-1898 USA, 2003). The test medium was Mueller Hinton II Broth for all organisms.

[2] = system: Vancomycin-intermediate Staphylococcus epidermidis Isolates; experiment: MIC assay (NCCLS broth dilution), VISE isolates; type: cell-based; conditions: for MIC: read-out: Minimal Inhibitory Concentration
Experimental: as §1, §2, §3, §4

[3] = Staphylococcus aureus, 52 MSSA isolates, combinations at 2.5:1, given as NB/partner

- MIC Range ([1]; 52 MSSA isolates, Mueller Hinton II Broth, combinations at 2.5:1, given as NB/partner): .08 to 10 µg/mL
- MIC ([1]; Staphylococcus aureus, MSSA isolate 133, 03MAR06, read-out: Minimal Inhibitory Concentration): 0.15 µg/mL
- MIC ([1]; Staphylococcus aureus, MSSA isolate 134, 03MAR06, read-out: Minimal Inhibitory Concentration): 0.08 µg/mL
- MIC ([1]; Staphylococcus aureus, MSSA isolate 135, 03MAR06, read-out: Minimal Inhibitory Concentration): 0.31 µg/mL
- MIC ([1]; Staphylococcus aureus, MSSA isolate 753, 22FEB06, read-out: Minimal Inhibitory Concentration): 0.31 µg/mL
- MIC ([1]; Staphylococcus aureus, MSSA isolate 754, 22FEB06, read-out: Minimal Inhibitory Concentration): 0.31 µg/mL
- MIC ([1]; Staphylococcus aureus, MSSA isolate 754, 24FEB06, read-out: Minimal Inhibitory Concentration): 0.31 µg/mL
- MIC ([1]; Staphylococcus aureus, MSSA isolate 755, 22FEB06, read-out: Minimal Inhibitory Concentration): 0.31 µg/mL
- MIC ([1]; Staphylococcus aureus, MSSA isolate 756, 03MAR06, read-out: Minimal Inhibitory Concentration): 0.15 µg/mL
- MIC ([1]; Staphylococcus aureus, MSSA isolate 779, 22FEB06, read-out: Minimal Inhibitory Concentration): 0.31 µg/mL
- MIC ([1]; Staphylococcus aureus, MSSA isolate 780, 03MAR06, read-out: Minimal Inhibitory Concentration): 0.31 µg/mL
- MIC ([1]; Staphylococcus aureus, MSSA isolate 781, 03MAR06, read-out: Minimal Inhibitory Concentration): 0.15 µg/mL
- MIC ([1]; Staphylococcus aureus, MSSA isolate 782, 22FEB06, read-out: Minimal Inhibitory Concentration): 0.15 µg/mL
- MIC ([1]; Staphylococcus aureus, MSSA isolate 783, 22FEB06, read-out: Minimal Inhibitory Concentration): 0.31 µg/mL
- MIC ([1]; Staphylococcus aureus, MSSA isolate 784, 22FEB06, read-out: Minimal Inhibitory Concentration): 0.31 µg/mL
- MIC ([1]; Staphylococcus aureus, MSSA isolate 785, 22FEB06, read-out: Minimal Inhibitory Concentration): 0.15 µg/mL
- MIC ([1]; Staphylococcus aureus, MSSA isolate 786, 22FEB06, read-out: Minimal Inhibitory Concentration): 0.15 µg/mL
- MIC ([1]; Staphylococcus aureus, MSSA isolate 787, 22FEB06, read-out: Minimal Inhibitory Concentration): 0.15 µg/mL
- MIC ([1]; Staphylococcus aureus, MSSA isolate 788, 22FEB06, read-out: Minimal Inhibitory Concentration): 0.15 µg/mL
- MIC ([1]; Staphylococcus aureus, MSSA isolate 789, 24FEB06, read-out: Minimal Inhibitory Concentration): 0.31 µg/mL
- MIC ([1]; Staphylococcus aureus, MSSA isolate 790, 24FEB06, read-out: Minimal Inhibitory Concentration): 0.31 µg/mL
- MIC ([1]; Staphylococcus aureus, MSSA isolate 791, 24FEB06, read-out: Minimal Inhibitory Concentration): 0.15 µg/mL
- MIC ([1]; Staphylococcus aureus, MSSA isolate 792, 03MAR06, read-out: Minimal Inhibitory Concentration): 0.15 µg/mL
- MIC ([1]; Staphylococcus aureus, MSSA isolate 793, 24FEB06, read-out: Minimal Inhibitory Concentration): 0.31 µg/mL
- MIC ([1]; Staphylococcus aureus, MSSA isolate 794, 24FEB06, read-out: Minimal Inhibitory Concentration): 0.31 µg/mL
- MIC ([1]; Staphylococcus aureus, MSSA isolate 994, 22FEB06, read-out: Minimal Inhibitory Concentration): 0.15 µg/mL
- MIC ([1]; Staphylococcus aureus, MSSA isolate 995, 03MAR06, read-out: Minimal Inhibitory Concentration): 0.31 µg/mL
- MIC ([1]; Staphylococcus aureus, MSSA isolate 996, 22FEB06, read-out: Minimal Inhibitory Concentration): 0.31 µg/mL
- MIC ([1]; Staphylococcus aureus, MSSA isolate 997, 22FEB06, read-out: Minimal Inhibitory Concentration): 0.31 µg/mL
- MIC ([1]; Staphylococcus aureus, MSSA isolate 998, 03MAR06, read-out: Minimal Inhibitory Concentration): 0.31 µg/mL
- MIC ([1]; Staphylococcus aureus, MSSA isolate 999, 22FEB06, read-out: Minimal Inhibitory Concentration): 0.15 µg/mL
- MIC ([1]; Staphylococcus aureus, MSSA isolate 1000, 24FEB06, read-out: Minimal Inhibitory Concentration): 0.15 µg/mL
- MIC ([1]; Staphylococcus aureus, MSSA isolate 1001, 24FEB06, read-out: Minimal Inhibitory Concentration): 0.31 µg/mL
- MIC ([1]; Staphylococcus aureus, MSSA isolate 1002, 24FEB06, read-out: Minimal Inhibitory Concentration): 0.15 µg/mL
- MIC ([1]; Staphylococcus aureus, MSSA isolate 1003, 03MAR06, read-out: Minimal Inhibitory Concentration): 0.08 µg/mL
- MIC ([1]; Staphylococcus aureus, MSSA isolate 1005, 24FEB06, read-out: Minimal Inhibitory Concentration): 0.08 µg/mL
- MIC ([1]; Staphylococcus aureus, MSSA isolate 1006, 24FEB06, read-out: Minimal Inhibitory Concentration): 0.31 µg/mL
- MIC ([1]; Staphylococcus aureus, MSSA isolate 1007, 24FEB06, read-out: Minimal Inhibitory Concentration): 0.31 µg/mL
- MIC ([1]; Staphylococcus aureus, MSSA isolate 1008, 24FEB06, read-out: Minimal Inhibitory Concentration): 0.625 µg/mL
- MIC ([1]; Staphylococcus aureus, MSSA isolate 1009, 24FEB06, read-out: Minimal Inhibitory Concentration): 0.15 µg/mL
- MIC ([1]; Staphylococcus aureus, MSSA isolate 1131, 24FEB06, read-out: Minimal Inhibitory Concentration): 0.15 µg/mL
- MIC ([1]; Staphylococcus aureus, MSSA isolate 1132, 03MAR06, read-out: Minimal Inhibitory Concentration): 0.15 µg/mL
- MIC ([1]; Staphylococcus aureus, MSSA isolate 1133, 24FEB06, read-out: Minimal Inhibitory Concentration): 0.15 µg/mL
- MIC ([1]; Staphylococcus aureus, MSSA isolate 1134, 24FEB06, read-out: Minimal Inhibitory Concentration): 0.31 µg/mL
- MIC ([1]; Staphylococcus aureus, MSSA isolate 1654, 03MAR06, read-out: Minimal Inhibitory Concentration): 0.31 µg/mL
- MIC ([1]; Staphylococcus aureus, MSSA isolate 1656, 03MAR06, read-out: Minimal Inhibitory Concentration): 0.15 µg/mL
- MIC ([1]; Staphylococcus aureus, MSSA isolate 1662, 03MAR06, read-out: Minimal Inhibitory Concentration): 0.15 µg/mL
- MIC ([1]; Staphylococcus aureus, MSSA isolate 1663, 03MAR06, read-out: Minimal Inhibitory Concentration): 0.15 µg/mL
- MIC ([1]; Staphylococcus aureus, MSSA isolate 1666, 03MAR06, read-out: Minimal Inhibitory Concentration): 0.31 µg/mL
- MIC ([1]; Staphylococcus aureus, MSSA isolate 1667, 03MAR06, read-out: Minimal Inhibitory Concentration): 0.15 µg/mL
- MIC ([1]; Staphylococcus aureus, MSSA isolate 1668, 03MAR06, read-out: Minimal Inhibitory Concentration): 0.15 µg/mL
- MIC ([1]; Staphylococcus aureus, MSSA isolate 1671, 03MAR06, read-out: Minimal Inhibitory Concentration): 0.15 µg/mL
- MIC ([1]; Staphylococcus aureus, MSSA isolate 1728, 03MAR06, read-out: Minimal Inhibitory Concentration): 10 µg/mL
- MIC ([1]; Staphylococcus aureus, MSSA isolate 1728, retest 09MAR06, read-out: Minimal Inhibitory Concentration): 10 µg/mL
- MIC ([1]; Staphylococcus aureus, MSSA isolate #1728 (novobiocin-resistant), read-out: MIC): 10 µg/mL
- MIC50 [1, 3]: 0.15 µg/mL
- MIC90 [1, 3]: 0.312 µg/mL
- MIC Range ([1]; the other 51 MSSA isolates (without #1728)): 0.08 to 0.62 µg/mL
- MIC Range ([2]; 4 VISE isolates, combinations at 2.5:1): ≦.04-.08 μg/ml
- MIC ([2]; Staphylococcus epidermidis, VISE isolate 2020, 09MAR06): 0.08 µg/mL
- MIC ([2]; Staphylococcus epidermidis, VISE isolate 2021, 09MAR06): ≤ 0.04 µg/mL
- MIC ([2]; Staphylococcus epidermidis, VISE isolate 2022, 03MAR06): ≤ 0.04 µg/mL
- MIC ([2]; Staphylococcus epidermidis, VISE isolate 2023, 03MAR06): < 0.04 µg/mL
- MIC50 ([2]; Staphylococcus epidermidis, 4 VISE isolates, combinations at 2.5:1): ≤ 0.04 µg/mL
Structure (SMILES): CO[C@@H]1[C@@H](OC(N)=O)[C@@H](O)[C@H](Oc2ccc3c(O)c(NC(=O)c4ccc(O)c(CC=C(C)C)c4)c(=O)oc3c2C)OC1(C)C [NB, novobiocin]
